# Measurements from ChEMBL document CHEMBL1201862, “PubChem BioAssay data set” (2004).
#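 Cultured in 96-well plates, cells were exposed to test compound for 48 hours across five concentrations. GI50: concentration for 50% inhibition of growth.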 The source made the active and inactive calls. No stated cut-off is given here; in the data, active = GI50 up to about 1.1 µM and inactive = higher.
# Assays:
# Assay in all cases: growth of human tumour cells (NCI), 48 h
# [1] = test system: 786-0
# [2] = test system: A498
# [3] = test system: HCC 2998
# [4] = test system: HCT-15
# [5] = test system: HT-29
# [6] = test system: IGROV-1
# [7] = test system: KM12
# [8] = test system: Malme-3M
# [9] = test system: NCI-H23
# [10] = test system: NCI-H460
# [11] = test system: OVCAR-8
# [12] = test system: SF-295
# [13] = test system: SK-MEL-2
# [14] = test system: SW-620
# [15] = test system: U-251
# [16] = test system: SK-MEL-5
SMILES,GI50 [1],GI50 [2],GI50 [3],GI50 [4],GI50 [5],GI50 [6],GI50 [7],GI50 [8],GI50 [9],GI50 [10],GI50 [11],GI50 [12],GI50 [13],GI50 [14],GI50 [15],GI50 [16]
O=C1c2ccccc2C(=O)c2c(O)c(NCCCNCCO)cc(O)c21,10.5 µM (inactive),14.8 µM (inactive),3.06 µM (inactive),5.83 µM,4.16 µM (inactive),12.4 µM (inactive),0.729 µM (active),17.1 µM (inactive),9.18 µM (inactive),3.33 µM (inactive),5.79 µM (inactive),10.7 µM (inactive),18 µM (inactive),4.33 µM (inactive),6.15 µM (inactive),
COc1ccc(C(=O)Nc2ccccc2)cc1[N+](=O)[O-],> 100 µM (inactive),> 100 µM (inactive),,> 100 µM,70.3 µM (inactive),> 100 µM (inactive),89.7 µM (inactive),> 100 µM (inactive),> 100 µM (inactive),> 100 µM (inactive),> 100 µM (inactive),> 100 µM (inactive),> 100 µM (inactive),> 100 µM (inactive),> 100 µM (inactive),31.5 µM (inactive)
Cc1cc(O)cc2c1O[C@@]1(C)CCC3[C@@]4(C)CC[C@H](O)C(C)(C)C4CC[C@@]3(C)[C@H]1C2 (stereo partly specified),2.32 µM (inactive),19.6 µM (inactive),,3.03 µM,13.3 µM (inactive),13.5 µM (inactive),4.31 µM (inactive),9.06 µM (inactive),10 µM (inactive),4.41 µM (inactive),8.45 µM (inactive),2.35 µM (inactive),,6.14 µM (inactive),2.84 µM (inactive),5.61 µM (inactive)
CC(=O)N1CCN(C=S)CC1,> 100 µM (inactive),> 100 µM (inactive),> 100 µM (inactive),> 100 µM,> 100 µM (inactive),> 100 µM (inactive),> 100 µM (inactive),> 100 µM (inactive),> 100 µM (inactive),> 100 µM (inactive),> 100 µM (inactive),> 100 µM (inactive),,> 100 µM (inactive),> 100 µM (inactive),> 100 µM (inactive)
CN(C)C(=S)/N=c1\ss/c(=N\C(=S)N(C)C)n1Cc1ccco1,> 100 µM (inactive),> 100 µM (inactive),> 100 µM (inactive),> 100 µM,,> 100 µM (inactive),> 100 µM (inactive),> 100 µM (inactive),,> 100 µM (inactive),> 100 µM (inactive),,> 100 µM (inactive),> 100 µM (inactive),> 100 µM (inactive),> 100 µM (inactive)
N#CSCc1nc2ccc(Cl)cc2c(-c2ccccc2)[n+]1[O-],18.2 µM (inactive),> 100 µM (inactive),15.6 µM (inactive),17.3 µM,20 µM (inactive),> 10 µM (inactive),22 µM (inactive),24.6 µM (inactive),,40.3 µM (inactive),19.7 µM (inactive),35.2 µM (inactive),20.1 µM (inactive),16.6 µM (inactive),29.4 µM (inactive),
CCOC(=O)C1=C(C)N(NC(N)=O)C2(N)N(NC(N)=O)C(C)=C(C(=O)OCC)C12C#N (stereo unspecified),> 100 µM (inactive),> 100 µM (inactive),> 100 µM (inactive),> 100 µM,> 100 µM (inactive),> 100 µM (inactive),> 100 µM (inactive),> 100 µM (inactive),,> 100 µM (inactive),> 100 µM (inactive),> 100 µM (inactive),> 100 µM (inactive),> 100 µM (inactive),> 100 µM (inactive),> 100 µM (inactive)
